# Entries after “also recorded” stand apart in the source; their conditions may differ. Where a SMILES comes first, the peptide text is derived from it. The star is where a group is joined. Cbz = O=C(OCc1ccccc1)*
# Assays:
# [1] = tested on: VEGF and GLUT3; experiment: RT-PCR of HIF-1 regulated genes in U87 cells; type: cell-based, human; details: U87, 5× the level normally found in MEM, 2 d
# Procedure: Total RNA was isolated using the RNeasy kit (Qiagen). For RT-PCR, 1 μg of total RNA was used with the […] One-Step System (Invitrogen). VEGF, GLUT3, and β-Actin primers were described previously. For quantitative PCR analysis, the iQ SY BR Green Supermix and MyiQ Single-Color
# [2] = tested on: HPH1, HPH2, and HPH3; experiment: HPH prolyl hydroxylation assay with in vitro translated HPHs (35S-pVHL pulldown); type: biochemical, human; details: in the absence of ascorbate or other reducing agents
# Procedure: Human HPH-1,2,3 and VHL pcDNA3.1/V5-HIS vectors (kindly provided by R. Bruick) were used for TNT Coupled Reticulocyte Lysate in vitro transcription/translation (Promega). Cytoplasmic extract for HPH activity was made by lysing cell pellets in assay buffer (20 mM Tris, pH 7.5, 5 mM KCl, 1.5 mM MgCl2, and 1 mM DTT) at 4° C. using a homogenizer, centrifuging at 20,000 g for 15 minutes and collecting supernatant for the assay. HPH enzymatic reactions were performed as previously described using either IVT products or cell extracts. This assay, chosen for its specificity for the HPH reaction, was linear over 30 minutes. For each reaction, either 7.5 μL of IVT products or 100 μg of cell extract protein were used as source of the enzyme. Activity was measured by either quantitative scintillation counting or by autoradiography after gel electrophoresis on a 10-20% Tris Glycine gradient gel (Invitrogen).
# To determine whether HPH activity was directly modulated by pyruvate or oxaloacetate, Pro564 hydroxylation in a biotinylated HIF-1α ODD peptide by in vitro translated HPH1, HPH2, and HPH3 was examined. The ability of streptavidin beads to pull down ^35S-pVHL bound to the biotinylated peptide was used as evidence of HIF-1α ODD peptide hydroxylation. This is the most specific and sensitive assay for HPH activity. […] Such assays can also give high background values in cell extracts.
# [3] = tested on: HIF-1α; experiment: Nuclear HIF-1α accumulation in human cancer cell lines (western blot); type: cell-based; details: for inhibition of HIF-1α accumulation, L- vs D-isomers and dimer: U87, four hours, glucose-free Krebs, 1 mM pyruvate or oxaloacetate, 250 μM (FIG. 3C); for HIF-1α accumulation induced by metabolite: substituted for glucose in Krebs buffer, normoxia; for HIF-1α accumulation induced by metabolite / HIF-1α accumulation induced by oxidant: four hours; for HIF-1α accumulation induced by oxidant: U251 cells; for dose inducing HIF-1α (doses as low as): culture times longer than 8 h; for threshold dose for inducing HIF-1α accumulation: four hours period of cell culture
# Procedure: Human U87, U251, U251-HRE (20) and U373 glioma cells were cultured in Eagle's MEM medium (Mediatech). […] 22B Human head and neck cancer cells were cultured in high glucose DMEM (Gibco) containing 2 mM glutamine. C6 ODD-GFP rat glioma cells were cultured in high glucose DMEM with 1.5 mg/ml G418. All culture media were supplemented with 10% fetal bovine serum and 1% (v/v) penicillin/streptomycin. Rat C6 glioma cells were cultured in high glucose DMEM. For cell hypoxia treatment, the culture dishes were sealed in a modular incubator chamber, flushed with gas containing 1% O2, 5% CO2 and 94% N2 for 5 minutes, and incubated in this environment at 37° C. for indicated times.
# Protein extraction, western blot analysis, and immunocytochemistry were performed as previously described. […] Mouse monoclonal anti-β-actin antibody was ab6276-100 (Abcam). Dimethyloxalylglycine was D1070 (Frontier Scientific). All other chemicals were from Sigma.
# [4] = tested on: HIF-1α; experiment: HIF-1α accumulation in 22B head and neck cancer cells; type: cell-based, human; details: 22B cells, 100 μM each, last 30 minutes after 24 hours accumulation
# Procedure: (§1) Human U87, U251, U251-HRE (20) and U373 glioma cells were cultured in Eagle's MEM medium (Mediatech). DU145 human prostate cancer cells and 022 human head and neck cancer cells were cultured in RPMI 1640 medium (Sigma). 22B Human head and neck cancer cells were cultured in high glucose DMEM (Gibco) containing 2 mM glutamine. C6 ODD-GFP rat glioma cells were cultured in high glucose DMEM with 1.5 mg/ml G418. All culture media were supplemented with 10% fetal bovine serum and 1% (v/v) penicillin/streptomycin. Rat C6 glioma cells were cultured in high glucose DMEM. For cell hypoxia treatment, the culture dishes were sealed in a modular incubator chamber, flushed with gas containing 1% O2, 5% CO2 and 94% N2 for 5 minutes, and incubated in this environment at 37° C. for indicated times.
# (§2) Protein extraction, western blot analysis, and immunocytochemistry were performed as previously described. Mouse monoclonal anti-HIF-1α antibodies were 610958 (BD Biosciences), and NB100-123 (Novus). Mouse monoclonal anti-GFP antibody was 1814460 (Roche). Mouse monoclonal anti-β-actin antibody was ab6276-100 (Abcam). Dimethyloxalylglycine was D1070 (Frontier Scientific). All other chemicals were from Sigma. Antibodies recognizing HPH homologues were from Novus biologicals and the antisera recognizing […] of HIF-1α was kindly provided by R. Freeman.
# [5] = tested on: HIF-1α; experiment: HIF-1α decay after washout of inducer; type: cell-based, human
# Procedure: as §1, §2
# To test this U251 cells was exposed to glucose-free Krebs buffer to either hypoxia (1% O2) or 2 mM pyruvate for four hours. Nuclear HIF-1α protein accumulation was induced by both treatments (FIG. 6A). […] HIF-1α immunoreactivity disappeared rapidly upon reoxygenation (return to 21% O2) of hypoxic cells as would be expected with the resumption of oxygen-dependent HIF-1α hydroxylation and proteolysis. […] To directly determine if the HPH activity in glioma cells was reversibly inactivated by pyruvate and oxaloacetate the ^35S-pVHL pulldown assay to measure HPH activity in extracts from cells treated for four hours with the 2-oxoacids was used. To capture the endogenous state of HPH activity, the cell extracts were first assayed without supplementation with exogenous reductants, ascorbate, or iron. […] The minimal HPH activity of extracts from pyruvate or oxaloacetate treated cells could also be restored by supplementation of the extracts with ascorbate or with exogenous ferrous iron (FeSO4) during the assay (FIG. 6D).
# [6] = tested on: HPH; experiment: 2-Oxoglutarate: HPH binding assay; set-up: species or system human; details: competitor 10 mM
# Procedure: Gel was washed four times with the indicated buffer. Analysis of HPH binding was measured by scintillation counting.
# [7] = tested on: labile intracellular iron pool; experiment: Calcein fluorescence assay for cellular free iron; type: cell-based, human; details: calcein loaded U251 cells
# Procedure: The ability of 2-oxoacids to chelate the labile intracellular iron pool was measured using the calcein fluorescence assay as previously described. The iron chelators desferrioxamine and bipyridyl were used as positive controls.
# [8] = tested on: HIF-1; experiment: HIF-1 luciferase reporter assay in U251-HRE cells; type: cell-based, human; details: 8 h
# [9] = tested on: ODD-GFP; experiment: Live cell assay for oxygen-dependent degradation, ODD-GFP transfected C6 glioma cells; type: cell-based, rat; details: C6 cells in Krebs buffer, 24 hours
# Procedure: as §1
# Next a live cell assay for oxygen-dependent HIF-1α degradation using C6 rat glioma cells that had been stably transfected with a vector encoding the HIF-1 cc ODD region fused to GFP (ODD-GFP) was performed. The ODD-GFP protein is hydroxylated and degraded in an oxygen dependent manner similar to HIF-1α. As with HIF-1α, a basal, as well as, hypoxia-inducible accumulation of ODD-GFP has been reported.
# [10] = tested on: HIF-1α; experiment: HIF-1α hydroxyproline detection in U251 whole cell extracts; type: cell-based, human; details: U251, four hours, antibody to hydroxylated ODD region
# Procedure: as §2
# Some reactive oxygen species can also induce HIF-1α. […] Next, attention was focused on HIF-1α proline hydroxylation as a target for 2-oxoacids.
compound,measurement,setting,value
N[C@@H](Cc1c[nH]cn1)C(=O)O [histidine],basal expression of the HIF-1 regulated genes VEGF and GLUT3,[1],lowered the basal expression
same,stimulation of HIF-1α ODD hydroxylation,[2],dose dependently stimulate HIF-1α ODD hydroxylation
N[C@@H](CSSC[C@H](N)C(=O)O)C(=O)O [cystine],"inhibition of HIF-1α accumulation, L- vs D-isomers and dimer",[3],effective
O=C(O)CCCC(=O)C(=O)O [α-ketoadipate],HIF-1α accumulation induced by metabolite,[3],did not induce HIF-1α accumulation
CC(=O)CC(=O)O [acetoacetate],HIF-1α accumulation induced by metabolite,[3],unable to induce HIF-1α accumulation
CC(C)C(=O)C(=O)O [α-ketoisovalerate],HIF-1α accumulation induced by metabolite,[3],minor activity
[Fe+3] [Fe(III)],accumulated (pyruvate-enhanced) HIF-1α after supplementation,[4],Fe(II)>Fe(III)
same,accumulated (pyruvate-enhanced) HIF-1α after supplementation,[4]; listed as ferric iron,diminished to a greater extent by ferrous iron than by ferric iron
same,"HIF-1α decay following induction with pyruvate or oxaloacetate, iron in wash",[5]; 100 μM each,not Fe(III)
same,decay of NO-induced HIF-1α with iron in wash,[5]; 100 μM each,not Fe(III)
same,"decay of accumulated HIF-1α after washing out DFO, iron added",[5]; 100 μM each,not Fe(III)
NC(=O)CC[C@H](N)C(=O)O [glutamine],basal HIF-1α accumulation,"[3]; U251 cells switched to Krebs buffer for 4 hours, 10 mM glutamine",no basal HIF-1α accumulation
O=C(O)C(=O)C(=O)O [ketomalonate],HIF-1α accumulation induced by metabolite,[3],did not induce HIF-1α accumulation
"O=C(O)CCC(=O)C(=O)O [2-OG, 2-oxoglutarate]",displacement of iron dependent binding of 35S-HPHs to immobilized 2-OG,[6],readily displaced
c1ccc(-c2ccccn2)nc1 [bipyridyl],intracellular calcein fluorescence,[7],increase in fluorescence
"CC(=O)N(O)CCCCCNC(=O)CCC(=O)N(O)CCCCCNC(=O)CCC(=O)N(O)CCCCCN [DFO, desferrioxamine]",intracellular calcein fluorescence,[7],increase in fluorescence
O=C(O)C(=O)CF [fluoropyruvate],HIF-1α accumulation induced by metabolite,[3],not able to induce HIF-1α accumulation
CC[C@H](C)C(=O)C(=O)O [α-keto-β-methylvalerate],HIF-1α accumulation induced by metabolite,[3],active in some but not all cell lines
O=C(O)CCC(=O)O [Succinate],induction of HIF-1 regulated reporter gene (HRE-luciferase),[8],did not find a significant effect
same,stimulation of basal ODD-GFP accumulation,[9],not by succinate; also recorded: did not find a significant effect
same,displacement of iron dependent binding of 35S-HPHs to immobilized 2-OG,[6],not by succinate; also recorded: did not find a significant effect
same,HIF-1α accumulation induced by metabolite,[3],unable to induce HIF-1α accumulation
same,HIF-1α accumulation induced by metabolite,[3]; listed as succinate,did not find a significant effect
CC(O)CC(=O)O (stereo not drawn) [β-hydroxybutyrate],HIF-1α accumulation induced by metabolite,[3],unable to induce HIF-1α accumulation
OO [H2O2],HIF-1α accumulation induced by oxidant,[3],induce HIF-1α accumulation
NCCN(CCN)[N+]([O-])=NO [NO],HIF-1α decay after washing of NO treated cells,[5]; extensive washing with MEM,sluggish HIF-1α decay
same,HIF-1α accumulation induced by oxidant,[3],induce HIF-1α accumulation
CCC(=O)C(=O)O [α-ketobutyrate],HIF-1α accumulation induced by metabolite,[3],did not induce HIF-1α accumulation
O=C(O)CC(O)C(=O)O (stereo not shown) [malate],HIF-1α accumulation induced by metabolite,[3],unable to induce HIF-1α accumulation
O=C(O)/C=C/C(=O)O [fumarate],induction of HIF-1 regulated reporter gene (HRE-luciferase),[8],did not find a significant effect
same,stimulation of basal ODD-GFP accumulation,[9],did not find a significant effect
same,displacement of iron dependent binding of 35S-HPHs to immobilized 2-OG,[6],did not find a significant effect
same,HIF-1α accumulation induced by metabolite,[3],unable to induce HIF-1α accumulation; also recorded: did not find a significant effect
CC(=O)C=O [pyruvaldehyde],HIF-1α accumulation induced by metabolite,[3],unable to induce HIF-1α accumulation
CC(=O)C(=O)O [pyruvate],dose inducing HIF-1α (doses as low as),[3],100 µM
same,threshold dose for inducing HIF-1α accumulation,[3],about 300 μM
C[C@H](N)C(=O)O [alanine],HIF-1α accumulation induced by metabolite,[3],unable to induce HIF-1α accumulation
"N[C@@H](CCC(=O)N[C@@H](CS)C(=O)NCC(=O)O)C(=O)O [GSH, glutathione]",HIF-1α decay with agent added to the wash,"[5]; U87 after pyruvate or oxaloacetate, 100 μM ascorbate, 5 mM GSH or MEM amino acid mixture",HIF-1α decay was rapidly resumed
same,HIF-1α accumulation by hypoxia or the iron chelator DFO,"[3]; FIG. 3C, 1% O2 or 150 μM DFO",not by hypoxia or DFO
same,"inhibition of HIF-1α accumulation, L- vs D-isomers and dimer",[3],selectively inhibited
same,NO induced HIF-1α accumulation,"[3]; U251, MEM, DETA-NO 300 μM, ascorbate 100 μM, Fe(II) 100 μM, GSH 5 mM",complete inhibition
O=C(O)CC(=O)C(=O)O [oxaloacetate],dose inducing HIF-1α (doses as low as),[3],100 µM
same,threshold dose for inducing HIF-1α accumulation,[3],about 300 μM
CC(C)CC(=O)C(=O)O [α-ketoisocaproate],HIF-1α accumulation induced by metabolite,[3],active in some but not all cell lines
CC(C)C[C@@H](C=O)NC(=O)[C@H](CC(C)C)NC(=O)[C@H](CC(C)C)NC(=O)OCc1ccccc1 [MG132] (Cbz-Leu-Leu-Leu-aldehyde),hydroxyproline (Pro564) in induced HIF-1α,[10],hydroxyproline was detected
"CCOC(=O)C(C)=O [ethyl esters of pyruvate, ethyl-pyruvate]",HIF-1α accumulation induced by metabolite,[3],effective

# From patent US20080045463A1, “Methods For Lowering Hif-1 Mediated Gene Expression” (priority 2004, published 2008)
